In ChEMBL document CHEMBL1781885, “Cytotoxic norsesquiterpene peroxides from the endophytic fungus Talaromyces flavus isolated from the mangrove plant Sonneratia apetala” (J Nat Prod, 2011):
Values after ≈ are worked out from the molar mass of the structure shown. Active and inactive are the calls of the source. The rule behind the calls is not given here.

Tests used:
Pseudomonas aeruginosa = assay: Antimicrobial activity against Pseudomonas aeruginosa ATCC 25668 at 50 ug/ml; type: functional, organism-based
Sarcina ventriculi = assay: Antimicrobial activity against Sarcina ventriculi ATCC 29068 at 50 ug/ml; type: functional
Staphylococcus aureus = assay: Antimicrobial activity against Staphylococcus aureus ATCC 27154 at 50 ug/ml; type: functional, organism-based
MCF7 = assay: Cytotoxicity against human MCF7 cells after 6 days by MTT method; type: functional, cell-based; conditions: MCF7, 144 h
Aspergillus niger = assay: Antimicrobial activity against Aspergillus niger ATCC 13496 at 50 ug/ml; type: functional, organism-based
HeLa = assay: Cytotoxicity against human HeLa cells after 6 days by MTT method; type: functional, cell-based; conditions: 144 h
PC-3 = assay: Cytotoxicity against human PC3 cells after 6 days by MTT method; type: functional, cell-based; conditions: PC-3, 144 h
MDA-MB-435 = assay: Cytotoxicity against human MDA-MB-435 after 6 days by MTT method; type: functional, cell-based; conditions: MDA-MB-435, 144 h
HepG2 = assay: Cytotoxicity against human HepG2 after 6 days by MTT method; type: functional, cell-based; conditions: HepG2, 144 h
Escherichia coli = assay: Antimicrobial activity against Escherichia coli ATCC 25922 at 50 ug/ml; type: functional, organism-based
Candida albicans = assay: Antimicrobial activity against Candida albicans ATCC 10231 at 50 ug/ml; type: functional, organism-based
Artemia salina = assay: Toxicity in Artemia salina; type: organism-based; conditions: in vivo

Compound | Activity (Pseudomonas aeruginosa) | Activity (Sarcina ventriculi) | Activity (Staphylococcus aureus) | IC50 (MCF7) | Activity (Aspergillus niger) | IC50 (HeLa) | IC50 (PC-3) | IC50 (MDA-MB-435) | IC50 (HepG2) | Activity (Escherichia coli) | Activity (Candida albicans) | LD50 (Artemia salina)
CC(=O)O[C@H]1CC[C@]23C[C@@H]1OO[C@@]2(C)C(=O)CCC3(C)C [TALAPEROXIDE B] | inactive | inactive | inactive | 1.33 µg/mL (≈ 4.49 µM) | inactive | 1.73 µg/mL (≈ 5.84 µM) | 0.89 µg/mL (≈ 3 µM) | 2.78 µg/mL (≈ 9.38 µM) | 1.29 µg/mL (≈ 4.35 µM) | inactive | inactive | < 10 ppm
CC1(C)CCC(=O)[C@@]2(C)OO[C@@H]3C[C@@]12CC[C@H]3O [MERULIN A] | inactive | inactive | inactive | 4.17 µg/mL (≈ 16.4 µM) | inactive | 7.97 µg/mL (≈ 31.3 µM) | 1.82 µg/mL (≈ 7.16 µM) | 1.9 µg/mL (≈ 7.47 µM) | 6.79 µg/mL (≈ 26.7 µM) | inactive | inactive | < 10 ppm
CC1(C)CCC(=O)[C@@]2(C)OO[C@H]3C[C@]12CCC3=O [TALAPEROXIDE C] | inactive | inactive | inactive | 6.63 µg/mL (≈ 26.3 µM) | inactive | 12.7 µg/mL (≈ 50.4 µM) | 4.34 µg/mL (≈ 17.2 µM) | 2.64 µg/mL (≈ 10.5 µM) | 15.1 µg/mL (≈ 59.9 µM) | inactive | inactive | < 10 ppm
CC1(C)CCC(=O)[C@]2(C)OO[C@H]3C[C@]12CCC3=O [TALAPEROXIDE D] | inactive | inactive | inactive | 1.92 µg/mL (≈ 7.61 µM) | inactive | 1.31 µg/mL (≈ 5.19 µM) | 0.7 µg/mL (≈ 2.77 µM) | 0.91 µg/mL (≈ 3.61 µM) | 0.9 µg/mL (≈ 3.57 µM) | inactive | inactive | < 10 ppm
CC(=O)O[C@H]1CC[C@]23C[C@@H]1OO[C@]2(C)C(=O)CCC3(C)C [TALAPEROXIDE A] | inactive | inactive | inactive | 19.8 µg/mL (≈ 66.7 µM) | inactive | 13.7 µg/mL (≈ 46.2 µM) | 5.7 µg/mL (≈ 19.2 µM) | 11.8 µg/mL (≈ 39.7 µM) | 12.9 µg/mL (≈ 43.6 µM) | inactive | inactive | < 10 ppm
COc1cccc2c1C(=O)c1c(O)c3c(c(O)c1C2=O)C[C@@](O)(C(=O)CO)C[C@@H]3O[C@H]1C[C@H](N)[C@@H](O)[C@H](C)O1 [EPIRUBICIN] |  |  |  | 0.56 µg/mL (≈ 1.03 µM) |  |  | 0.16 µg/mL (≈ 0.294 µM) | 0.33 µg/mL (≈ 0.607 µM) | 0.56 µg/mL (≈ 1.03 µM) |  |  | 
